Where a name gives a salt, the structure may show the parent alone.
Columns and labels:
ZIKV [1] = experiment: serum viral load (ZIKV NS1 ELISA) in ZIKV-challenged mice; assay type: in vivo, Ifnar1−/− mice; settings: for decrease in serum viral load: serum at day 3; for reduction in serum viral load: until day 3
Description: (§1) FIG. 8. Zika virus load estimation in mouse serum following emetine treatment. Serum was separated. NS1 protein was estimated using ZIKV-NS1 ELISA kit (Biofront, Tallahassee, Fla.) as per the manufacturer's protocol. Briefly, 5 μl of the serum was lysed with equal volume of lysis buffer for 30 min at 37° C. A 1:900 dilution of the serum was done using sample dilution buffer and added to ELISA plates. Reactions were quantified using HRP conjugated antibody and TMB. Absorbance was taken at 450 nm after adding the stop solution. Statistical analysis was done using the Mann-Whitney ANOVA. *p<0.05, **p<0.01, ***p<0.001.
as §1, with “9.” for “8.”, “treatment before and after Zika virus challenge.” for “treatment.”, “1:300” for “1:900”
NS1 ELISA. The anti-ZIKV NS1 ELISA (ZKV-NS1-EK) was obtained from BioFront Technologies (Tallahassee, Fla.) and used according to the manufacturer's protocol.
Ifnar1−/− mice (7-8 wk old, male and female, Jackson Lab) were dosed (i.p) with Emetine 1 mg/kg/day (n=6), 2 mg/kg/day (n=8) or saline (Vehicle control, n=8) starting at 24 hours prior to challenging with ZIKV (10^3, Focal forming unit (FFU)) on day 0. Drug was continued until day 6. At peak viremia (day 3), a blood sample was taken from the tail vein and serum was separated and stored at −70° C. till further analysis. The body weight were monitored twice daily until day 10. Mice reaching humane end points were euthanized. With emetine treatment, there was a 30% and 37% decrease in serum viral load with 1 mg/kg and 2 mg/kg treatment, respectively.
(§2) Ifnar1−/− mice (8 wk old, male and female) were dosed with Emetine 2 mg/kg/day i.p. starting at 24 hours prior (n=8) or 24 after (n=7) the challenging with ZIKV on day 0. Drug was continued till day 3. Mice were euthanized, and blood and liver tissue were collected.

ZIKV (three strains) [2] = experiment: infectious ZIKV production from SNB-19 cells, focus-forming unit assay on Vero cells; assay type: cell-based; settings: Zika virus, for each of three ZIKV strains
Description: FIGS. 1A-B. Antiviral activity of emetine against ZIKV infection. ZIKV production from human glioblastoma SNB-19 cells treated with increasing concentrations of emetine. 24 hours post-infection, supernatants from SNB-19 cells were titrated onto naïve Vero cells plated in a monolayer in 96-well plates for infectious focus-forming unit assay as previously described and focus forming units quantified.
(§3) IC50 for each strain is ≤˜10 nM.
Cell line cultures. The glioblastoma SNB-19 cell line (part of the National Cancer Institute 60 human tumor cell line) was a gift from Dr. David Meckes (Florida State University, Tallahassee, Fla.). SNB-19 cells were maintained at 37° C. in 5% CO2 in […], 1× penicillin/streptomycin, and 10% fetal bovine serum (Invitrogen). The Aedes albopictus C6/36 cell line (ATCC) was maintained at 28° C. in 5% CO2.
Preparation of ZIKV and cell infection. The MR766-ZIKV stock with the titer of 1×10^5 Tissue Culture Infective Dose (TCID)/ml in the form of culture fluid from an infected rhesus Macaca cell line LLC-MK2, was originally obtained from ZeptoMetrix (Buffalo, N.Y.). The FSS13025-ZIKV strain was obtained from Drs. Robert Tesh and Pei-Yong Shi (University of Texas Medical Branch, Galveston, Tex.). […] C6/36-amplified ZIKV titer was determined by infecting Vero cells for 48 hours with a methyl-cellulose overlay and analyzed for focus-forming units per mL (FFU/ml). […]

ZIKV (three strains) [3] = experiment: immunofluorescence staining and quantification of ZIKV positive SNB-19 cells; assay type: cell-based, Zika virus; settings: one of three ZIKV strains; emetine at 0.01, 0.1, or 1 μM
Description: Immunofluorescence (IF) staining (FIG. 2A) and quantification (FIG. 2B) of ZIKV positive SNB-19 cells following infection with one of three ZIKV strains and treatment with emetine at 0.01, 0.1, or 1 μM. Emetine is effective against all three ZIKV strains tested.
Preparation of ZIKV and cell infection. The MR766-ZIKV stock with the titer of 1×10^5 Tissue Culture Infective Dose (TCID)/ml in the form of culture fluid from an infected rhesus Macaca cell line LLC-MK2, was originally obtained from ZeptoMetrix (Buffalo, N.Y.). The FSS13025-ZIKV strain was obtained from Drs. Robert Tesh and Pei-Yong Shi (University of Texas Medical Branch, Galveston, Tex.). The PRVABC59 strain was obtained from ATCC (Manassas, Va.). Original viral stocks were then amplified in Aedes albopictus clone C6/36 cells. Briefly, C6/36 cells were inoculated with viral inoculum for one hour at 28° C. in low volume of media (3 ml per T-75 flask), with rocking every 15 minutes, before addition of 17 ml media. Viral inoculated cells were incubated at 28° C. for 6-7 days before harvesting of supernatant. C6/36-amplified ZIKV titer was determined by infecting Vero cells for 48 hours with a methyl-cellulose overlay and analyzed for focus-forming units per mL (FFU/ml). In mock infections, an equal volume of spent uninfected C6/36 culture medium was used. […]

PRVABC59-ZIKV = experiment: time of addition: drug added 1 hour prior to or 4 hours post infection, NS1 Western blot and ZIKV-ENV IF staining; assay type: cell-based, Zika virus; settings: added before or after infection; 1 μM
Description: as §3
Drug (emetine) was added at 1 μM either 1-hour prior to infection with PRVABC59-ZIKV, or 4-hours post infection with PRVABC59-ZIKV.
FIGS. 6A-B show IF staining of ZIKV-ENV Vero cells after a 24-hour infection. Drug was added at 1 μM either 1-hour prior to infection with PRVABC59-ZIKV, or 4-hours post infection with PRVABC59-ZIKV.
Immunocytochemistry. Cells were fixed with 4% paraformaldehyde (Sigma) for 15 min at room temperature. Samples were permeabilized and blocked with 0.25% Triton X-100 (Sigma) and 10% donkey or goat serum in PBS for 20 min as previously described (Chiang et al., 2011; [41]; Yoon et al., 2014). Samples were then incubated with primary antibodies at 4° C. overnight, followed by multiple PBST washes and incubation with secondary antibodies for 1 h at room temperature. Slides were mounted using VECTASHIELD with DAPI (Vectorlabs, Burlingame, Calif.). The following primary antibodies were used: anti-flavivirus group antigen (clone D1-4G2-4-15; mouse; 1:500; Millipore), and anti-cleaved caspase-3 ([…]; Rabbit; 1:500; Cell Signaling Technology). Antibodies were prepared in PBS containing 0.25% Triton X-100 and 10% donkey serum. Images were taken by Zeiss LSM 700 and 880 confocal microscopes, Olympus BX61, or Zeiss Axiovert 200M microscope.
Western blot. […]

HEK293 cells = experiment: Toxicity IC50 (cell-killing activity) in the compound screen; assay type: cell-based, Human
ZIKV [4] = experiment: liver viral load (NS1 gene expression by real time PCR) in ZIKV-challenged mice; assay type: in vivo, Ifnar1−/− mice; settings: until day 3
Description: FIG. 10. Zika virus load estimation in mouse liver following emetine treatment before and after Zika virus challenge. From 30 mg of liver tissue stored in RNAlater (Qiagen), total RNA was isolated using RNeasy mini kit (Qiagen) and converted to cDNA. Viral NS1 gene expression was estimated by real time PC Relative expression of the NS1 gene was calculated using ZIKV-NS1 specific primers and GAPDH primers. Statistical analysis was done using the Mann-Whitney ANOVA. *p<0.05, **p<0.01, ***p<0.001.
as §2

[5] = 2 mg/kg i.p. starting 24 hours after ZIKV challenge
[6] = 2 mg/kg i.p. starting 24 hours prior to ZIKV challenge

SMILES | decrease in serum viral load (ZIKV [1]; 1 mg/kg/day i.p. from 24 hours prior to challenge) | decrease in serum viral load (ZIKV [1]; 2 mg/kg/day i.p. from 24 hours prior to challenge) | IC50 (ZIKV (three strains) [2]) | ZIKV positive SNB-19 cells (IF) (ZIKV (three strains) [3]) | effect on ZIKV infection by time of addition (PRVABC59-ZIKV) | Tox IC50 (HEK293 cells) | reduction in serum viral load (ZIKV [1]; [5]) | reduction in serum viral load (ZIKV [1]; [6]) | reduction in liver viral load (ZIKV [4]; [5]) | reduction in liver viral load (ZIKV [4]; [6])
CC[C@H]1CN2CCc3cc(OC)c(OC)cc3[C@@H]2C[C@@H]1C[C@H]1NCCc2cc(OC)c(OC)cc21 [Emetine, emetine] | 30% | 37% | ≤ 10 nM | reduces ZIKV infection in a dosage dependent manner | effective against ZIKV infection when added before or after infection | No | – | – | – | –
CC[C@H]1CN2CCc3cc(OC)c(OC)cc3[C@@H]2C[C@@H]1C[C@H]1NCCc2cc(OC)c(OC)cc21 [emetine dihydrochloride] | – | – | – | – | – | – | 32% | 55% | 35% | 42%

From US11207315B2, “Emetine compounds for treatment and prevention of flavivirus infection” (FLORIDA STATE UNIVERSITY RESEARCH FOUNDATION, INC., priority 2017, dated 2021)
